Experiment [1] can be described thus: (§1) Competitive inhibition of human blood group A N-acetylgalactosaminyltransferase using UDP-GalNac as substrate in presence of magnesium ions.
In experiment [2] the target is T1, Histo-blood group ABO system transferase (Homo sapiens, UniProt P16442).
T1 sequence (P16442 whole entry): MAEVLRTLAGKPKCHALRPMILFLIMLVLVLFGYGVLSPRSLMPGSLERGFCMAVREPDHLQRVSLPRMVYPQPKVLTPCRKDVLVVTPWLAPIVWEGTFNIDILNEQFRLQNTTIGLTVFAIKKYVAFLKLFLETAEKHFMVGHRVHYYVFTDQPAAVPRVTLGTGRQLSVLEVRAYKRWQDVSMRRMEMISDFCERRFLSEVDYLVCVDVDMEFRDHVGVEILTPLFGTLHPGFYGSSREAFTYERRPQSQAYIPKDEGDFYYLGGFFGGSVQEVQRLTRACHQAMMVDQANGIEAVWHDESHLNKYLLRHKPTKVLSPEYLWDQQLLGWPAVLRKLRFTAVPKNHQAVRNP
Nature of the experiment: Inhibition of human blood group B Galactosyltransferase using radiolabeled UDP-Gal as substrate in presence of manganese ions.

The target of experiment [3] is T1, Histo-blood group ABO system transferase. The experiment is described as follows: Inhibition of human blood group B Galactosyltransferase using UDP-Gal as substrate by STD NMR analysis in presence of magnesium ions.
Experiment [4] has the same target. Nature of the experiment: Binding affinity to human blood group B Galactosyltransferase after 300 secs by SPR analysis.
For experiment [5], the target named is T2, Beta-1,4-galactosyltransferase 1 (Bos taurus) (UniProt P08037).
T2 sequence (whole entry): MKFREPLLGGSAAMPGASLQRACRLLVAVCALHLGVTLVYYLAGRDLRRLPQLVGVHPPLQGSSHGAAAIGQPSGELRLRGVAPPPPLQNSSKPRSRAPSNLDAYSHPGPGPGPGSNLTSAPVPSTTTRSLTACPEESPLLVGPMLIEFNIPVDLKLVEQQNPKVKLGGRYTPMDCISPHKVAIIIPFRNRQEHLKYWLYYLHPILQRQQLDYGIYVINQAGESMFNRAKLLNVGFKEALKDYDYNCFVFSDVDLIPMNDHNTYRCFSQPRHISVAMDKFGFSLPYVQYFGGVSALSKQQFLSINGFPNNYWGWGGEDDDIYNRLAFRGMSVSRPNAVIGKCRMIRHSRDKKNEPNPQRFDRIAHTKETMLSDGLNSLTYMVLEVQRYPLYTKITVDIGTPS
Nature of the experiment: Binding affinity to bovine beta-1,4-galactosyltransferase 1 using UDP-Gal as substrate at 1.5 mM after 15 hrs by NMR spectroscopic analysis in presence of magnesium ions.

The species named for experiment [6] is Homo sapiens. The experiment is described as §1.
The target of experiment [7] is T1, Histo-blood group ABO system transferase. The experiment is described as follows: Competitive inhibition of human blood group B Galactosyltransferase using UDP-Gal as substrate by Michaelis-Menten equation analysis in presence of magnesium ions.
Experiment [8] shares this target. The experiment is described as follows: Binding affinity to human blood group B Galactosyltransferase by STD NMR analysis in presence of magnesium ions.

Consider three molecules from ChEMBL document CHEMBL2321747, “A nonionic inhibitor with high specificity for the UDP-Gal donor binding site of human blood group B galactosyltransferase: design, synthesis, and characterization” (J Med Chem, 2013).

The source made the active and inactive calls. No cut-off for these calls is given here.

On to `O=c1[nH]c(=O)c2[nH]c(=O)n(C[C@@H](O)[C@H](O)[C@H](O)CO)c2[nH]1`, for which the inhibition constant (Ki) worked out at 1100 µM in experiment [1], 2200 µM in experiment [2] and 571 µM in experiment [3]. The molecule further returned a Kd in experiment [4] of 2300 µM.

Take `O=c1[nH]c(=O)c2[nH]c(=O)n(C[C@@H](O)[C@H](O)[C@H](O)CO[C@H]3O[C@H](CO)[C@H](O)[C@H](O)[C@H]3O)c2[nH]1`: the inhibition result in experiment [5] was “Active”. Moreover, the inhibition result in experiment [6] was “inactive”. The values for the Ki in experiment [7], in experiment [2] and in experiment [3] were 565 µM, 1500 µM and 117 µM, respectively. The results for the half-inhibitory concentration (IC50) in experiment [2] and in experiment [3] were 1600 µM and 389 µM, respectively. For the same molecule, the dissociation constant (Kd) in experiment [4] is 254 µM; in experiment [8] it was 182 µM.

Consider `O=c1[nH]c(=O)c2[nH]c(=O)n(C[C@H](O)[C@H](O)[C@H](O)CO)c2[nH]1`, for which the Ki in experiment [1] worked out at 712 µM; in experiment [2], 1500 µM; in experiment [3], 361 µM.
